The assay addresses Squalene monooxygenase (Sus scrofa). Put plainly: Inhibitory concentration at which 50% decrease in the activity of Squalene epoxidase in pig liver microsomes.

The values that follow come from BindingDB's records for doi:10.1016/S0960-894X(00)80339-X (1993).

One may read the IC50 as the concentration that inhibits the measured activity by half. A low value points to higher potency.

`CC(C)=CCC/C(C)=C/CC/C(C)=C/CC/C=C(\C)CC/C=C(\C)CCCN(C)O` [N-Methyl-N-((4E,12E,16E,20E)-4,8,13,17,21-pentamethyl-docosa-4,8,12,16,20-pentaenyl)-hydroxylamine] showed a concentration for half-maximal inhibition (IC50) of 13 µM. In other words, the double-digit micromolar range.
`CC(C)=CCC/C(C)=C/CC/C(C)=C/CC/C=C(\C)CC/C=C(\C)CC/C=C/[N+](=O)[O-]` [(1E,5E,9E,13E,17E)-5,9,14,18,22-Pentamethyl-1-nitro-tricosa-1,5,9,13,17,21-hexaene] returned an IC50 greater than 400 µM.
